Measured values from paper PMC10746280, “Bacterial efflux pump modulators prevent bacterial growth in macrophages and under broth conditions that mimic the host environment” (mBio, 2023).

Experiments:
E. coli AcrB = target: T1, E. coli AcrB (Escherichia coli, UniProt P31224); set-up: method as in PMID 29879224; details: ITC; previously reported; cited from earlier work
T1 construct: 4xHis (C); made in house; host or cells: E. coli BL21-Gold (DE3), plasmid derived from pSPORT1

[1] = test system: S. enterica (SL1344 and SA10801); assay: Growth/checkerboard in cation-adjusted Mueller Hinton Broth; assay type: cell-based; details: MHB
Protocol: (§1) LPM 5.5 is chemically defined, contains low phosphate and low magnesium, and is buffered to pH 5.5 ([34], [39][–][41]). […] It was further noted that mutant strains lacking acrAB or tolC grow poorly in LPM 5.5 compared to the corresponding wild type (Fig. 5C through F).
Overnight cation-adjusted MHB-grown cultures of SL1344 or SA10801 were diluted in MHB or LPM 5.5 to an optical density at 600 nm (OD600) of 0.01 and distributed into polystyrene 96-well flat-bottom plates. EPM analogs were added at concentrations up to 300 µM, near the limit of solubility. The antibiotics ciprofloxacin, doxycycline, and erythromycin were added up to concentrations of 2 µM, 2 µM, and 8 µM, respectively. The final DMSO concentration was at or below 2% in all wells. Plates were grown at 37°C with shaking for 18 h and OD600 was monitored (BioTek Synergy H1, BioTek Eon). Each experiment was performed with biological triplicate or higher as indicated. Percent growth was determined by normalizing to OD600 reads in wells containing no D66 or antibiotic. Checkerboards in LPM 5.5 medium were performed with culture grown overnight in LB and diluted to an OD600 of 0.01 in LPM 5.5 and compounds/antibiotics were added as previously described. MuSyC analysis was pursued as previously described ([44], [45]). […]

S. Typhimurium = assay: Bacterial growth (OD600, CFU/mL) in LPM medium; assay type: cell-based
From the text: as §1
Fig 5 In LPM pH 5.5, acrAB and tolC are required for growth, and EPM analogs inhibit growth. (A and B) Optical density at 600 nm (OD600) and CFU per milliliter of S. Typhimurium in LPM 5.5 (at pH 5.5) or LPM 7 (at pH 7.0) in the presence of CU032. (C through F) OD600 in LPM 5.5 of (C and E) S. Typhimurium ΔacrAB mutant and wild-type strains, and (D and F) E. coli ΔtolC mutant and wild-type strains with (C, D) CU032 or (E and F) EPM35. Mean and SEM of three biological replicates are shown for A–F. The wild-type and mutant strain controls are the same for C and E and for D and F.
Bacteria were grown in LB at 37°C ([76], [77]), unless otherwise stated. Cation-adjusted MHB was purchased from Sigma-Aldrich (90922). LPM 5.5 medium was made according to the following recipe: 5 mM KCl, 7.5 mM (NH4)2SO4, 0.5 mM K2SO4, 10 mM glucose, 49 µM MgCl2, 337 µM PO4-, 0.05% casamino acids (CAS)-amino acids, 80 mM MES, adjusted to pH to 5.5 with 5 M NaOH, and sterile filtered. Where stated, bacteria were grown with antibiotics: 30 µg/mL streptomycin.

T1 sequence (P31224 whole entry): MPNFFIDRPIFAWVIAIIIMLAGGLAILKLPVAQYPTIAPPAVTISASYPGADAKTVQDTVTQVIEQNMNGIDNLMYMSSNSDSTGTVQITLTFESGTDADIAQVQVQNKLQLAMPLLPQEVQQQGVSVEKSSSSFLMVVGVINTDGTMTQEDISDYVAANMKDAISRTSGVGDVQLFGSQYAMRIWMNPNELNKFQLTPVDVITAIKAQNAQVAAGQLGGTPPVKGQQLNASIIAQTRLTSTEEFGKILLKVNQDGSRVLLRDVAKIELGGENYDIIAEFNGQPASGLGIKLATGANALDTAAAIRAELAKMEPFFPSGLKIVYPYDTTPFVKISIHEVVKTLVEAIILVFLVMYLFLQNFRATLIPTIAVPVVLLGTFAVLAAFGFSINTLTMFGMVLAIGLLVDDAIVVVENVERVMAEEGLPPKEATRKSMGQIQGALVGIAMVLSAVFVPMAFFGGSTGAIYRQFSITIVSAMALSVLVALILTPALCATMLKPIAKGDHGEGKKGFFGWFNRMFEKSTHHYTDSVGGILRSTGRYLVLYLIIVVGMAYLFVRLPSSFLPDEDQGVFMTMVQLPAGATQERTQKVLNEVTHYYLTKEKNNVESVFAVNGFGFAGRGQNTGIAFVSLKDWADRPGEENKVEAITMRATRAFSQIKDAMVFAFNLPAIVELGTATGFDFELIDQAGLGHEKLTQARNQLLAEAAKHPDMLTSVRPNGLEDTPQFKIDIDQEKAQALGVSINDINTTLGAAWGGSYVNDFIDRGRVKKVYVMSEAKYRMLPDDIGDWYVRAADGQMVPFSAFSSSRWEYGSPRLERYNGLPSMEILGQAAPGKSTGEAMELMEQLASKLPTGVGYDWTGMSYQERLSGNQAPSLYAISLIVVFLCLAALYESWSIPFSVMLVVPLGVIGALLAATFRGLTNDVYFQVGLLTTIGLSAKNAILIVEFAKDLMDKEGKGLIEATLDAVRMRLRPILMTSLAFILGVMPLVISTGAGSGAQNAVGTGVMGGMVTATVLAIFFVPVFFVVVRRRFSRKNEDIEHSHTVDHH

| Structure (SMILES) | KD (E. coli AcrB) | ∆H (E. coli AcrB) | ∆S (E. coli AcrB) | growth inhibition of wild-type bacteria in Mueller Hinton Broth [1] | nature of inhibitory activity (CFU per milliliter) (S. Typhimurium; LPM 5.5) | growth inhibition in LPM 5.5 (S. Typhimurium; pH 5.5) | growth inhibitory activity in LPM at pH 7.0 (S. Typhimurium; pH 7.0) |
| --- | --- | --- | --- | --- | --- | --- | --- |
| OC(COc1ccc(Cl)c(Cl)c1)CN1CCC(Nc2nccc(C(F)(F)F)n2)CC1 (stereo not shown) [EPM35] | sub-micromolar range | −7,663 ± 84 cal/mol | 4.2 cal/(mol deg) |  |  |  |  |
| NC1CCN(CC(O)COc2ccc(Cl)c(Cl)c2)C1 (stereo not shown) [CU032] |  |  |  | did not inhibit the growth | bacteriostatic, not bactericidal | prevented bacterial growth | abolished |
